For data set [1], the target named is T1, C-X-C chemokine receptor type 2 (Homo sapiens, UniProt P25025).
T1 sequence (P25025 whole entry): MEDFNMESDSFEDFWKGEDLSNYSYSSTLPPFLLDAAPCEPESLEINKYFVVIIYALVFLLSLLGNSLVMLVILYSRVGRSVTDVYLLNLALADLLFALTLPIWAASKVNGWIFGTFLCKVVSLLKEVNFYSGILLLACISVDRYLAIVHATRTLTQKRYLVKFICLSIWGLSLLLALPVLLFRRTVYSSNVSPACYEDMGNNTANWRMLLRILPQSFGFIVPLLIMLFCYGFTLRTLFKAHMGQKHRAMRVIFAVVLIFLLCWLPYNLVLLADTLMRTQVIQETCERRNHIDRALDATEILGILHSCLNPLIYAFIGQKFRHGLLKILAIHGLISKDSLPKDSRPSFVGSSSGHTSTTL
Description: Displacement of [125I]IL8 from human CXCR2 expressed in HEK 293 by SPA. Type of data set: cell-based, HEK293.

The nature of data set [2]: Volume of distribution at steady state in iv dosed rat. Particulars: in vivo, read-out: Vss. The format is ADME, organism-based.
Data set [3] can be described thus: Half life in iv dosed rat. To be noted: in vivo. The format is ADME, organism-based.
A short description of data set [4]: Bioavailability in po dosed rat. The format is ADME, organism-based. To be noted: in vivo.
Data set [5] in a line: Solubility at pH 7.4. Type of data set: physicochemical. Particulars: buffer.
Data set [6] is described as follows: Permeability from apical to basolateral side of the human Caco-2 cell membrane. Type of data set: ADME, cell-based. To be noted: read-out: permeability.
Data set [7] is described as follows: Permeability from basolateral to apical side of the human Caco-2 cell membrane. Type of data set: ADME, cell-based. Particulars: read-out: permeability.
In data set [8] the target is T1, C-X-C chemokine receptor type 2. Description: Antagonistic activity against human CXCR2 in neutrophils assessed as blockade of GROalpha stimulated calcium mobilisation by FLIPR. Type of data set: functional.
Data set [9] in a line: Protein binding in human plasma. Type of data set: ADME, cell-free. Particulars: read-out: PPB (converted).
Data set [10] is described as follows: Permeability across human Caco-2 cell membrane. The format is ADME, cell-based. Particulars: read-out: permeability.

These results are taken from ChEMBL document CHEMBL1147921, “SAR studies on thiazolo[4,5-d]pyrimidine based CXCR2 antagonists involving a novel tandem displacement reaction” (Bioorg Med Chem Lett, 2007).

In brackets after ≈: the same amount, converted by molar mass. Bounds are passed on as bounds.

In turn, `C[C@H](CO)Nc1nc(SCc2cccc(Cl)c2F)nc2nc(N)sc12` gave an IC50 in [1] of 3.98 nM. Consider `C[C@H](CO)Nc1nc(SCc2cccc(F)c2)nc2nc(N)sc12`, for which, in data set [1], the IC50 was 15.8 nM.

`Nc1nc2nc(SCc3cccc(F)c3F)nc(NC(CO)CO)c2s1` had an IC50 in [1] of 31.6 nM.

As to `Nc1nc2nc(SCc3cccc(F)c3F)nc(N3CCCC3CO)c2s1` (configuration not stated), the IC50 in data set [1] was > 1000 nM.

`CCN(CC)c1nc2nc(SCc3cccc(F)c3F)nc(NC(CO)CO)c2s1` had an IC50 in data set [1] of 1580 nM.

As for `C[C@@H](O)[C@@H](CO)Nc1nc(SCc2cccc(F)c2F)nc2nc(N)sc12`, the IC50 in data set [1] was 15.8 nM. On the same count and under the same terms, in the case of `CC(CO)(CO)Nc1nc(SCc2cccc(F)c2F)nc2nc(N)sc12` it was 79.4 nM; in that of `C[C@H](CO)Nc1nc(SCc2ccccc2F)nc2nc(N)sc12`, 12.6 nM. On the same count and under the same terms, in the case of `Cc1nc(CSc2nc(NC(C)(C)CO)c3sc(N)nc3n2)cs1` it was 1000 nM. On the same count and under the same terms, as for `CC[C@H](CO)Nc1nc(SCc2cccc(F)c2F)nc2nc(N)sc12`, the figure is 25.1 nM; as for `C[C@H](CO)Nc1nc(SCc2ccccc2Cl)nc2nc(N)sc12`, 31.6 nM; as for `C[C@H](CO)Nc1nc(SCc2cccc(F)c2F)nc2nc(NC3CC3)sc12`, 20 nM.

As to `CC(C)(CO)Nc1nc(SCc2ccco2)nc2nc(N)sc12`, the IC50 in data set [1] was 100 nM. The same measure, in the same setting: as for `OCC(CO)Nc1nc(SCc2cccc(F)c2F)nc2nc(NC3CC3)sc12`, the figure is 100 nM; as for `CC[C@H](CO)Nc1nc(SCc2cccc(F)c2F)nc2nc(NC(C)C)sc12`, 100 nM; as for `Cc1nc(CSc2nc(N[C@H](C)CO)c3sc(N)nc3n2)cs1`, 126 nM. Turning to `C[C@H](CO)Nc1nc(SCc2cccc(F)c2F)nc2nc(N)sc12`, the Vd in data set [2] worked out at 1.03 L/kg. Moreover, the half-life in data set [3] was 1.2 h. The same compound had a bioavailability in data set [4] of 9%. The compound further returned a solubility in data set [5] of 1.5 µg/mL (≈ 3.91 µM). For the same compound, in data set [6], the Papp A→B came out at 2.47 ×10⁻⁶ cm/s. The Papp B→A in data set [7] was found to be 13.7 ×10⁻⁶ cm/s. In data set [1], `CNc1nc2nc(SCc3cccc(F)c3F)nc(N[C@H](C)CO)c2s1` gave an IC50 of 7.94 nM.

As for `CCN(CC)c1nc2nc(SCc3cccc(F)c3F)nc(N[C@H](C)CO)c2s1`, the IC50 in data set [1] was 398 nM. For `CC(C)Nc1nc2nc(SCc3cccc(F)c3F)nc(N[C@H](C)CO)c2s1`, in data set [1], the IC50 was 31.6 nM. With `CC(C)(CO)Nc1nc(SCc2cccc(F)c2F)nc2nc(N)sc12`, the figures for the IC50 in data set [1] and in [8] were 25.1 nM and 15.8 nM, respectively. The fraction unbound in data set [9] is 0.016. Further, the Papp in data set [10] worked out at 3.6 ×10⁻⁶ cm/s. The compound `C[C@H](CO)Nc1nc(SCc2cccc(Cl)c2Cl)nc2nc(N)sc12` had an IC50 in [1] of 15.8 nM. The same measure, in the same setting: as for `C[C@H](CO)Nc1nc(SCc2ccco2)nc2nc(N)sc12`, the figure is 31.6 nM. `C[C@H](CO)Nc1nc(SCc2cccc(Cl)c2)nc2nc(N)sc12` showed a concentration for half-maximal inhibition (IC50) in data set [1] of 12.6 nM.
